Assay results as given in patent US20170266292A1, “LIPIDIC COMPOUND-TELODENDRIMER HYBRID NANOPARTICLES AND METHODS OF MAKING AND USES THEREOF” (The Research Foundation for The State University of New York, priority 2016, published 2017).

Legend:
U87 cells [1] = test: MTS cell viability assay on U87 cells; assay type: cell-based, human; conditions: 72 h continuous incubation
Protocol: Cell Culture and MTS Assays. The human glioblastoma multiforme (GBM) cell lines U87 and LN229, as well as the colon cancer cell line HT-29 cell line were purchased from American Type Culture Collection (ATCC, Manassas, Va., U.S.A.). U138 cell line established from human patients diagnosed with GBM. All cells were cultured in McCoy's 5 A medium supplemented with 10% fetal bovine serum (FBS), 100 U/mL penicillin G, and […] streptomycin at 37° C. using a humidified 5% CO2 incubator. Various formulations of proteins with different dilutions were added to the plate and then incubated in a humidified 37° C., 5% CO2 incubator. After a 72 h continuous incubation, a mixture solution composed of CellTiter 96 AQueous MTS, and an electron coupling reagent, PMS, was added to each well according to the manufacturer's instructions. The cell viability was determined by measuring absorbance at 490 nm using a microplate reader (BioTek Synergy 2). Untreated cells served as the control. Results were shown as the average cell viability [100%×(ODtreat−ODblank)/(ODcontrol−ODblank)] of triplicate wells. The cells were also treated with blank nanoparticles in PBS (1×) and blank lipidoids in a mixture of cremophor/ethanol (v:v=1:1) with different dilutions and incubated for a total of 72 h to evaluate nanoparticle-related toxicity.

[2] = DLS hydrodynamic diameter of lipidoid-telodendrimer hybrid NPs; assay type: physicochemical; conditions: lipidoid alone
Protocol: (§1) Formulation of Lipidoid-Telodendrimer Nanoparticles. Nanoparticles were formed by mixing lipidoids and/or telodendrimers at required mass ratios in a solution of 90% ethanol and 10% 10 mM sodium citrate (by volume). Particle solutions were diluted with 10 times volume of phosphate buffered saline (PBS, 1×), and dialyzed against PBS (1×) for 4 h. The particle solution was then mixed with proteins at a ratio of 1/10 (protein/nanoparticle, w/w) to form nanoparticle-protein complex. The complex solution was then stored in sealed vessels at 4° C. for 1 day before use. For Mcl-1 inhibitor-loaded nanoparticle preparation, the Mcl-1 inhibitor, lipidoids and telodendrimers were in a solution of 90% ethanol and 10% 10 mM sodium citrate (by volume). Particle solutions were diluted with 10 times volume of PBS, yielding Mcl-1 inhibitor-loaded lipidoid-telodendrimer nanoparticles.
(§2) Characterization. Proton NMR spectrum was recorded on a Bruker AVANCE 600 MHz spectrometer. MALDI-TOF mass spectrum was recorded on a Bruker REFLEX-III instrument. Dynamic light scattering (DLS) studies were performed using a Zetatrac (Microtrac Inc.) instrument, and the area-based mean particle sizes were presented. Zeta potential measurements were carried out on a Malvern Nano-ZS zetasizer at room temperature. […] UV-vis spectra were recorded on a Thermo Scientific Nanodrop 2000c spectrophotometer.

[3] = Zeta potential of lipidoid-telodendrimer hybrid NPs; assay type: physicochemical; conditions: lipidoid alone
Protocol: as §1, §2

[4] = test system: orthotopic human U87 GBM tumors; test: Intracranial distribution of proteins after CED; assay type: in vivo, mouse; conditions: one day after CED; protein/NP 1/10; confocal microscopy
Protocol: Intracranial Orthotopic GBM Tumor Model. Female athymic nude mice (NCRNU-Sp/Sp), 6-7 weeks age, were purchased from Taconic Biosciences (Germantown, N.Y.). All animals were kept under pathogen-free conditions according to Association for Assessment and Accreditation of Laboratory Animal Care (AAALAC) guidelines and were allowed to acclimatize for at least 4 days prior to any experiments. All animal experiments were performed in compliance with institutional guidelines and according to protocol approved by the Committee for the Humane Use of Animals of State University of New York Upstate Medical University. Athymic nude mice were anesthetized with ketamine/xylazine (80 mg/kg: 5 mg/kg) through an intraperitoneal injection. The mice were then placed in a stereotactic head frame. Using aseptic technique, a midline skin incision was made a 0.5 mm anterior to bregma and 2.5 mm lateral of midline, a burr hole will be placed. A 25G needle delivered U87 (GBM) tumor cells 3.2 mm deep via the stereotactic head frame. Approximately 5×10^4 cells (in 1 μL of PBS) will be injected. This injection will occur over the course of 5 minutes. […]
CED Administration of Protein Formulations. […] For bioluminescence image analysis, the associated bioluminescence intensities were determined by Living Image software (Caliper Life Sciences) using operator-defined regions of interest (ROI) measurements.

[5] = Protein release from agarose gels (0.6% wt); assay type: physicochemical; conditions: FITC-BSA from agarose gels (0.6% wt) immersed in PBS
Protocol: Protein Release from Agarose Gels. Free FITC-BSA and FITC-BSA-incorporated lipidoid-telodendrimer hybrid nanoparticles (1/10, FITC-BSA/nanoparticle, w/w) were loaded in agarose gels of a concentration of 0.6% wt. The sample-loaded agarose gels were immersed in PBS (1×) with shaking for protein release assays. The concentration of released FITC-BSA at various time points was measured by fluorescence spectroscopy employing a pre-established calibration equation. The release medium was replaced with fresh medium. The accumulated protein release was reported as the means for each triplicate sample.

HT-29 cells = test: Cellular uptake of protein-incorporated nanoparticles, HT-29 cells; assay type: cell-based, human; conditions: 2 h at 37° C., FITC approx. 1 μg/mL
Protocol: (§3) Cellular Uptake of Protein-Incorporated Nanoparticles. The cellular uptake and intracellular trafficking of the protein-incorporated nanoparticles were determined by fluorescence microscopy. FITC-BSA was used as a model protein. HT-29 and U87 cells were seeded in chamber slide with a density of 5×10^4 cells per well in 350 μL of McCoy's 5 A and cultured for 24 h. The original medium was replaced with free FITC-BSA and FITC-BSA-loaded nanoparticles at final FITC a concentration of 1 or 3 μg/mL at 37° C. After a 2 h incubation, the cells were washed three times with cold PBS (1×) and fixed with 4% formaldehyde for 10 min at room temperature, and the cell nuclei were stained with DAPI. The slides were mounted with cover slips and cells were imaged with a Leica fluorescence microscope or a Nikon FV1000 laser scanning confocal scanning microscope. The mean fluorescence density in cells (unit: pixel^−1) was calculated using the following equation: […]

U87 cells [6] = test: Cellular uptake of protein-incorporated nanoparticles, U87 cells; assay type: cell-based, human; conditions: 2 h at 37° C.
Protocol: as §3

## CCCCCCCCCCCCCCC(O)CN(C)CCCN(C)CC(O)CCCCCCCCCCCCCC (centres unmarked) [lipidoid, 1,1′-(propane-1,3-diylbis(methylazanediyl))bis(hexadecan-2-ol)]
U87 cells [1]
  cytotoxicity of blank nanoparticles / lipidoid: toxicity was observed
[2]
  particle size of lipidoid NPs: ~129 nm
[3]
  ζ-potential of lipidoid NPs: +8 mV

## free Cy5-BSA: near-infrared fluorescence dye-labeled BSA (Cy5-BSA), model protein
[4]
  distribution in brain sections containing U87 tumors (fluorescence): no obvious fluorescent signals

## free FITC-BSA: fluorescein isothiocyanate (FITC) labeled BSA, model protein
[5]
  time within which ~50% of the proteins released: ≤ 2 h
HT-29 cells
  cellular uptake efficiency (semi-quantitative, mean fluorescence intensity): closes to zero
U87 cells [6]; FITC approx. 1 μg/mL
  cellular uptake efficiency (semi-quantitative, mean fluorescence intensity): closes to zero
U87 cells [6]; FITC approx. 3 μg/mL
  cellular uptake (confocal laser fluorescence microscopy): very low
